Test results taken from PubChem BioAssay AID485276 (Southern Research Specialized Biocontainment Screening …, 2010).

system: BSC cells, SV40 CPE inhibition; test: antiviral efficacy against SV40, host toxicity – BSC cells, set 3, confirmation (AID 485276); settings: measured here: BSC cell cytotoxicity

SMILES | TC50 [µM]
Oc1ccc(C2(c3ccc(O)cc3)CC2)cc1 | 196
CC(C)(c1ccc(O)cc1)c1ccc(O)cc1 | 17
CC(C)(c1ccc(O)cc1)c1ccc(Cl)cc1 | 71.2
Oc1ccc(Oc2ccc(O)cc2)cc1 | 9.92
Oc1ccc(Cl)cc1Cc1cc(Cl)ccc1O | 18
Oc1c(Cl)cc(Cl)cc1Sc1cc(Cl)cc(Cl)c1O | 21.2
CC(C)c1cc(C(C)(C)c2ccc(O)c(C(C)C)c2)ccc1O | 24
